Where two headings read alike, the source gives them in different places.
Key:
human SCD1 = target: T1, human SCD1 (Homo sapiens, UniProt O00767); assay: Growth inhibition of yeast strain expressing human SCD1 as sole desaturase (OLE1 deleted), OD600 readout; format: cell-based
T1 construct: expressed in transfected cells; host or cells: yeast strain with OLE1 deleted, plasmid-borne human SCD1 (selected in SD-Ura)
T1 sequence (O00767 1-359): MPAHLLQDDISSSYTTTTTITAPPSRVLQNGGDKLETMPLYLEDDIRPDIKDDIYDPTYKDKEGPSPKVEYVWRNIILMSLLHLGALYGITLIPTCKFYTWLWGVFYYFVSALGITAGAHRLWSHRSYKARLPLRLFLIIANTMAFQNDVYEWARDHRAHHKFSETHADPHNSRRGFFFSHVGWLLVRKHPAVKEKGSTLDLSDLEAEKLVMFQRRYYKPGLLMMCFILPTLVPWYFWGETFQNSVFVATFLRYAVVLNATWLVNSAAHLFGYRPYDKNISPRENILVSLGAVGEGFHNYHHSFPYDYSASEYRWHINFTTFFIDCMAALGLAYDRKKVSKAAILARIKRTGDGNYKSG

human SCD5 = target: T2, human SCD5 (Homo sapiens, UniProt Q86SK9); assay: Growth inhibition of yeast strain expressing human SCD5 as sole desaturase (OLE1 deleted), OD600 readout; format: cell-based
T2 construct: expressed in transfected cells; host or cells: yeast strain with OLE1 deleted, plasmid-borne human SCD5 (selected in SD-Ura)
T2 sequence (Q86SK9 1-330): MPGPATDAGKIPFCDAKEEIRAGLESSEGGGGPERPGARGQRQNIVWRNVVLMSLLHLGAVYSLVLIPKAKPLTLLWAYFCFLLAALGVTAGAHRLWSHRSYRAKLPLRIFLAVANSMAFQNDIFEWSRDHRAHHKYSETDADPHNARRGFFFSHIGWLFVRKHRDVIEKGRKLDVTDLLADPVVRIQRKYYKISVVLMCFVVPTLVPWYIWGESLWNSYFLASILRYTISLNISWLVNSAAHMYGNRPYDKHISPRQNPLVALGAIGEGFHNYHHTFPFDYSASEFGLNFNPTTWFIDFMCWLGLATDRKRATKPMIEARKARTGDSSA

[1] = yeast strain expressing human SCD1 as sole desaturase, growth (OD600) after 40 h at 30° C., read-out: SCD1 IC50
[2] = yeast strain expressing human SCD5 as sole desaturase, growth (OD600) after 40 h at 30° C., read-out: SCD5 IC50

SMILES | IC50 (human SCD1; [1]) [µM] | IC50 (human SCD5; [2]) [µM] | IC50 (human SCD1; SCD1 IC50) [µM] | IC50 (human SCD5; SCD5 IC50) [µM]
Cc1nnc(C(=O)Nc2ccc(Cc3cccc(Cl)c3)cn2)s1 [Compound 103, N-(5-(3-chlorobenzyl)pyridin-2-yl)-5-methyl-1,3,4-thiadiazole-2-carboxamide] | 0.16 | 0.08 | – | –
CN1N=C(NC(=O)c2ccc(Cc3cccc(F)c3)cn2)CCC1=O [Compound 90, 5-(3-Fluorobenzyl)-N-(1-methyl-6-oxo-1,4,5,6-tetrahydropyridazin-3-yl)picolinamide] | 18 | 0.62 | – | –
Cn1cc(NC(=O)c2ccc(COc3cccc(Cl)c3)cn2)ccc1=O [Compound 487] | 4.6 | 0.31 | – | –
O=C(Nc1ccc(Cc2cccc(F)c2)cn1)c1ccc(=O)n(C2COC2)c1 [Compound 272] | > 45 | 13 | – | –
CCn1nc(C(=O)Nc2ncc(Cc3cccc(F)c3)s2)ccc1=O [Compound 227, 1-ethyl-N-(5-(3-fluorobenzyl)thiazol-2-yl)-6-oxo-1,6-dihydropyridazine-3-carboxamide] | 0.44 | 0.36 | – | –
Cn1cc(C(=O)Nc2ccc(Cc3cccc(C#N)c3)cn2)ccc1=O [Compound 61, N-(5-(3-cyanobenzyl)pyridin-2-yl)-1-methyl-6-oxo-1,6-dihydropyridine-3-carboxamide] | – | – | 7.52 | 0.6
Cn1ccc(C(=O)Nc2ccc(Cc3ccc(F)cc3)cn2)n1 [Compound 93, N-(5-(4-fluorobenzyl)pyridin-2-yl)-1-methyl-1H-pyrazole-3-carboxamide] | 0.55 | 0.02 | – | –
CCn1cc(C(=O)Nc2ccc(Cc3ccc(F)c(Cl)c3)cn2)ccc1=O [Compound 82, N-(5-(3-chloro-4-fluorobenzyl)pyridin-2-yl)-1-ethyl-6-oxo-1,6-dihydropyridine-3-carboxamide] | > 45 | 0.03 | – | –
Cn1cc(C(=O)Nc2ccc(Cc3cccc(Cl)c3)cn2)cn1 [Compound 94, N-(5-(3-chlorobenzyl)pyridin-2-yl)-1-methyl-1H-pyrazole-4-carboxamide] | 0.03 | 0.01 | – | –
Cn1nc(C(=O)Nc2nc(C(N)=O)c(Cc3cccc(F)c3)s2)ccc1=O [Compound 430] | > 45 | > 45 | – | –
Cn1cc(C(=O)Nc2ccc(Nc3cccc(F)c3)cn2)ccc1=O [Compound 349] | > 45 | 32.3 | – | –
CN1N=C(C(=O)Nc2ccc(Cc3cccc(Cl)c3)nn2)CCC1=O [Compound 197, N-(6-(3-chlorobenzyl)pyridazin-3-yl)-1-methyl-6-oxo-1,4,5,6-tetrahydropyridazine-3-carboxamide] | 2.75 | 0.37 | – | –
CC(=O)C1CN(C(=O)Nc2ccc(Cc3cccc(Cl)c3)cn2)C1 [Compound 403] | > 45 | > 45 | – | –
O=C(Nc1ccc(Cc2cccc(F)c2)cn1)c1ccc(=O)n(C2CCC2)n1 [Compound 421] | > 45 | > 45 | – | –
Cn1cc(C(=O)Nc2ccc(Cc3ccc(F)c(F)c3)cn2)cn1 [Compound 314] | 0.1 | 0.02 | – | –
CCn1cc(C(=O)Nc2ccc(Oc3cccc(Cl)c3)cn2)ccc1=O [Compound 165, N-[5-(3-chlorophenoxy)pyridin-2-yl]-1-ethyl-6-oxo-1,6-dihydropyridine-3-carboxamide] | 14.2 | 3.31 | – | –
N#Cc1ccc(C(=O)Nc2ccc(Cc3cc(F)cc(F)c3)cn2)nc1 [Compound 493] | 32 | 0.043 | – | –

SMILES | IC50 (human SCD1; [1]) [µM] | IC50 (human SCD5; [2]) [µM] | IC50 (human SCD1; SCD1 IC50) [µM] | IC50 (human SCD5; SCD5 IC50) [µM]
Cn1c(C(=O)Nc2ccc(Cc3cccc(F)c3)cn2)cc(=O)n1C [Compound 459] | > 45 | > 45 | – | –
CN1N=C(C(=O)Nc2ccc(CCc3cccc(Cl)c3)nn2)CCC1=O [Compound 246] | 6.45 | 1.59 | – | –
CN1N=C(C(=O)Nc2ncc(N(C)c3cccc(F)c3)s2)CCC1=O [Compound 237, N-(5-((3-fluorophenyl)(methyl)amino)thiazol-2-yl)-1-methyl-6-oxo-1,4,5,6-tetrahydropyridazine-3-carboxamide] | 7.21 | 3.2 | – | –
COc1ccc(Cn2c(C(=O)Nc3ccc(Cc4cccc(F)c4)cn3)cc(=O)n2C)cc1 [Compound 455] | > 45 | > 45 | – | –
CN1N=C(C(=O)Nc2ccc(Cc3cncc(C(F)(F)F)c3)cn2)CCC1=O [Compound 277] | > 45 | 13.4 | – | –
CN1N=C(C(=O)Nc2ccc(Cc3ccc(Cl)c(Cl)c3)nn2)CCC1=O [Compound 188, N-(6-(3,4-dichlorobenzyl)pyridazin-3-yl)-1-methyl-6-oxo-1,4,5,6-tetrahydropyridazine-3-carboxamide] | 4.4 | 0.19 | – | –
Cn1cc(C(=O)Nc2ccc(Cc3cc(C(F)(F)F)ccn3)cn2)ccc1=O [Compound 279] | 21.5 | 1.96 | – | –
CN1N=C(C(=O)Nc2ccc(NCc3cccc(F)c3)cn2)CCC1=O [Compound 281] | > 45 | 2.75 | – | –
N#Cc1ccc(C(=O)Nc2ccc(Cc3cccc(F)c3)cn2)cc1 [Compound 133, 4-cyano-N-(5-(3-fluorobenzyl)pyridin-2-yl)benzamide] | > 45 | 0.23 | – | –
O=C(Nc1ccc(Cc2cccc(F)c2)cn1)c1cc(CO)ccn1 [Compound 497] | 0.01 | 0.01 | – | –
O=C(Nc1ccc(Cc2ccc(F)cc2)cn1)c1ccc(CO)nc1 [Compound 116, N-(5-(4-fluorobenzyl)pyridin-2-yl)-6-(hydroxymethyl)nicotinamide] | 0.01 | 0.01 | – | –
Cn1nc(C(=O)Nc2ccc(Cc3cc(F)cc(C#N)c3)cn2)ccc1=O [Example 42, N-(5-(3-cyano-5-fluorobenzyl)pyridin-2-yl)-1-methyl-6-oxo-1,6-dihydropyridazine-3-carboxamide] | 2.41 | 0.08 | – | –
O=C(Nc1ccc(Cc2cccc(F)c2)cn1)c1ccn2cnnc2c1 [Compound 344] | > 45 | 26.3 | – | –
CC(C)Cc1ccc(NC(=O)c2ccc(=O)n(C)n2)nn1 [Compound 395] | > 45 | > 45 | – | –
Cn1cc(C(=O)Nc2nc(C#N)c(Cc3cccc(F)c3)s2)ccc1=O [Compound 353] | 1.94 | 1.36 | – | –
Cn1cc(NC(=O)c2ccc(Cc3ccc(F)cc3)cn2)ccc1=O [Compound 496] | 0.222 | 0.01 | – | –

Second part, led by results:

IC50 (human SCD1; [1]) [µM] | IC50 (human SCD5; [2]) [µM] | SMILES | IC50 (human SCD1; SCD1 IC50) [µM] | IC50 (human SCD5; SCD5 IC50) [µM]
6 | 0.2 | N#Cc1ccc(C(=O)Nc2ccc(Cc3ccc(F)c(C#N)c3)cn2)nc1 [Compound 534] | – | –
0.01 | 0.01 | Cn1nccc(C(=O)Nc2ccc(Cc3cc(F)cc(F)c3)cn2)c1=O [Compound 532] | – | –
0.57 | 0.01 | Cc1cc(C(=O)Nc2ccc(Cc3ccc(F)c(F)c3)cn2)cn(C)c1=O [Compound 679] | – | –
> 45 | 1.7 | O=C(Nc1ccc(Cc2ccc(F)c(F)c2)cn1)c1ncc(Br)cn1 [Compound 518] | – | –
35 | 0.42 | Cc1ncc(C(=O)Nc2ccc(Cc3cc(F)cc(C#N)c3)cn2)cn1 [Compound 595] | – | –
39 | 0.15 | CN1N=C(C(=O)Nc2ccc(COc3ccc(F)c(F)c3)cn2)CCC1=O [Compound 598] | – | –
0.32 | 0.027 | Cn1nccc(C(=O)Nc2ccc(Cc3cccc(F)c3)cn2)c1=O [Compound 546] | – | –
> 45 | 0.014 | Cn1nc(C(=O)Nc2ccc(Cc3cc(Cl)cc(C#N)c3)cn2)ccc1=O [Compound 626] | – | –
0.3 | 0.18 | N#Cc1cc(C(=O)Nc2ccc(Cc3cc(F)cc(F)c3)cn2)cnn1 [Compound 662] | – | –
0.19 | 0.03 | N#Cc1cc(F)cc(Cc2ccc(NC(=O)c3cncc(CO)c3)nc2)c1 [Compound 628] | – | –
> 45 | 1.8 | Cn1nc(C(=O)Nc2ccc(COc3ccc(Cl)cc3)cn2)ccc1=O [Compound 670] | – | –
0.61 | 0.17 | Cc1cc(C(=O)Nc2ccc(Cc3cc(F)cc(C#N)c3)cn2)nc(C)n1 [Compound 606] | – | –
2.6 | 0.32 | CC(O)c1ccc(C(=O)Nc2ccc(Cc3ccc(F)c(F)c3)cn2)cn1 (centres unmarked) [Compound 514] | – | –
> 45 | 0.43 | CNC(=O)c1ccc(C(=O)Nc2ccc(Cc3ccc(F)c(F)c3)cn2)cn1 [Compound 593] | – | –
> 45 | 1.2 | Cn1nc(C(=O)Nc2ccc(Cc3cccc(F)c3F)cn2)ccc1=O [Compound 551] | – | –
30 | 0.47 | Cn1ccc(C(=O)Nc2ccc(Cc3cc(F)cc(F)c3)cn2)nc1=O [Compound 590] | – | –
